“Also recorded” adds a separate entry of the source.
System: duck hepatocytes
Experiment: Induction of steatosis in cultured duck hepatocytes by incubation with fatty acid
Format: cell-based

SMILES: CCCCC/C=C\C/C=C\CCCCCCCC(=O)O [linoleic acid]
- dose response: percentage of hepatocytes with steatosis versus concentration (0, 0.1, 0.25, 0.5, 1, 2 μm, FIG. 16B): corresponding increase in the percentage of hepatocytes with steatosis
- percentage of steatotic hepatocytes (2 μM linoleic acid, FIG. 16B): above 85%
- induction of steatosis (accumulation of intracellular lipid-containing vesicles) (2 μM, compared to untreated control, FIG. 16A): successful induction of steatosis; also recorded: successfully induced to undergo steatosis
